According to patent US8454982B2, “Stable S-(+)-abscisic acid liquid and soluble granule formulations” (Valent BioSciences Corporation, priority 2007, dated 2013):

Assays:
Flame Seedless grapes = assay: Field table grape coloration; format: in vivo; details: for Number of colored clusters per 4 vines: foliar, 200 gallons/acre
Procedure: ABA formulation performance was evaluated in the field using table grape coloration to assess efficacy. Treatments consisted of untreated control, ethephon control (industry standard ethylene-releasing agent), ABA technical (95% ABA solubilized in ethanol), ABA liquid formulation, and ABA water-soluble granule formulation. All treatments had 0.05% v/v Latron B-1956 surfactant included. The three ABA treatments (200 ppm ABA; 200 gallons/acre) and the ethephon control (250 ppm at 200 gallons/acre) were foliar applied with a backpack sprayer at 10 to 20% color development (June 27) on Flame Seedless grapes commercially grown in Arvin, Calif. The numbers of color clusters per 4 vines were assessed at 8 and 11 days after treatment.

Coleus plants = assay: Greenhouse Coleus wilting (drought tolerance, shelf life); format: in vivo
Procedure: ABA formulation performance was evaluated in the greenhouse using Coleus wilting to assess efficacy. Treatments consisted of control, ABA technical (95% ABA solubilized in ethanol), ABA liquid formulation, and ABA water-soluble granule formulation. Coleus plants were grown in four-inch diameter pots to the 6 to 8 leaf stage (n=4 plants/treatment). Water (15 mL/plant) was drench-applied to the control plants, and ABA (15 mL/plant; 250 ppm ABA) was drench applied to ABA treated plants. The plants were held in a greenhouse without irrigation until all plants wilted to a point when they were determined to be unmarketable. The plants were rated daily for the extent of wilting on a scale from 1 (no wilting) to 4 (complete wilting). A rating of 2.5 was the point at which a plant was determined to be unmarketable and the previous day was recorded as the marketable life of that plant in days.

Row | SMILES | Number of colored clusters per 4 vines (Flame Seedless grapes; 8 days after treatment) | Number of colored clusters per 4 vines (Flame Seedless grapes; 11 days after treatment) | Number of colored clusters, comparison (Flame Seedless grapes; in vivo) | Days of shelf life after treatment (Coleus plants; drench 15 mL/plant, 250 ppm ABA, no irrigation) | Coleus wilting / shelf life, comparison (Coleus plants; in vivo)
1 | CC1=CC(=O)CC(C)(C)[C@@]1(O)/C=C/C(C)=C\C(=O)O [ABA technical, S-(+)-abscisic acid] | 9.0 | 11.2 | increased the number of colored clusters more than the ethephon control | 12 days | delayed wilting and increased shelf life of Coleus plants
2 | O=P(O)(O)CCCl [Ethephon control, ethephon, reference compound] | 6.0 | 6.7 | – | – | –
